Entries after “also recorded” stand apart in the source; their conditions may differ.
How the values were obtained:
[1] = tested on: A549 lung carcinoma cells; test: In vitro cell viability assay (MTT); format: cell-based, human; conditions: IPS-07004 for 24 hrs, FIG. 1
Method: A549 lung carcinoma cells (1×10^3/well) were seeded on a 96-well plate for 16 hrs. After starvation for 24 hrs., the cells were pretreated with LPS or IL-1b for 4 hrs. The cells were then treated with IPS-07004 for 24 hrs. in a dose-dependent manner. After 48 hrs. of incubation, MTT [3-(4,5-dimethylthiazol-2-yl)-2,5-diphenyl-tetrazolium bromide] solution (5 mg/ml) was added to each well in an amount of 1/10 of total volume, and the cells were incubated for 2 hrs. at 37° C.
To examine the survival rate for A549 cells treated with IPS-07004, an in vitro cell viability assay was performed using MTT.

[2] = tested on: IL-6; test: ELISA of IL-6 in A549 cells induced by LPS or IL-1beta; format: cell-based, human; conditions: dose-dependent
Method: (§1) A549 cells (1×10^5/well) were seeded on a 96-well plate for 16 hrs. After starvation for 24 hrs., the cells were pretreated with LPS or IL-1beta for 4 hrs. The cells were then treated with IPS-07004 for 24 hrs. in a dose-dependent manner. Cytokines levels (IL-6 and IL-8) in media were analyzed in accordance with the manufacturer's specification (BD Biosciences Pharmingen, San Diego, Calif., USA).
(§2) To assess whether IPS-07004 inhibits the expression of IL-6 and IL-8, which play a critical role in asthma pathology, ELISA of the cytokines in A549 cells was employed.

[3] = tested on: IL-8; test: ELISA of IL-8 in A549 cells induced by LPS or IL-1beta; format: cell-based, human; conditions: dose-dependent
Method: as §1, §2

[4] = biological target: T1, human Caspase-1 (Homo sapiens, UniProt P29466); test: Caspase-1 activity in HMC-1 cell-based assay; conditions: HMC-1 cells; FIG. 7, FIG. 9
T1 construct: endogenous in cells; host or cells: HMC-1 (human mast cell line)
T1 sequence (P29466 120-404): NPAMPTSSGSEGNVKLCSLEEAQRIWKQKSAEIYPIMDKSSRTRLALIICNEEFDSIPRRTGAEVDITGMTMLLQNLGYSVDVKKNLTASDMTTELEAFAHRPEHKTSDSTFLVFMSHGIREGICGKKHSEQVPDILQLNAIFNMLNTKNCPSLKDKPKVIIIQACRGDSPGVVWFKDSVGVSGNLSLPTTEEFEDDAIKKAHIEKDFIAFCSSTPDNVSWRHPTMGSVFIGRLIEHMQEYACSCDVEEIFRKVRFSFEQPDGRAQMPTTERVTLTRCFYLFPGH
Text: Using HMC-1 (human mast cell line) cell-based assay, IPS-07005 ((IPS-07004+Montelukast) inhibited the activity of Caspase-1, a critical component of inflammasome, to suppress the conversion of Pro-TSLP, IL-1beta, and -IL-18 to active forms as shown in FIG. 9.

[5] = tested on: TSLP (Thymic Stromal Lymphopoietin); test: TSLP expression in HMC-1 cells; format: cell-based, human; conditions: FIG. 7
[6] = tested on: TSLP (Thymic Stromal Lymphopoietin); test: TSLP expression in DNCB mice; format: in vivo; conditions: DNCB (2,4-dinitrochlorobenzene) mice; FIG. 7
[7] = Mast cell number and serum IgE level; format: in vivo; conditions: FIG. 8
[8] = tested on: OVA-challenged mice; test: OVA-induced asthma in mice (BAL fluid, IgE, lung histology); format: in vivo
Method: 25 mg Ovalbumin (OVA) and 1 mg aluminum hydroxide hydrate (AlOH3) were dissolved in […] of sterile saline solution and sensitized by intraperitoneal administration at 0 and 21 days. At the end of the observation period, all living animals were anesthetized using Isoflurane, and blood was collected from the vena cava/abdominal aorta. Lungs are removed and washed with sterile saline solution. […] of sterile saline was filled in a 1 mL syringe, and the injection and recovery were repeated three times. The washed solution was lightly centrifuged (300 rpm, 10 minutes) and the supernatant was frozen and used for analysis of CXCL1 (ab216951, Abcam PLC) IL-17A (ab199081, Abcam PLC) and CCL3 (ab100726, Abcam PLC). The precipitate was resuspended in the same amount of sterile saline solution and used for eosinophil count and total cell count. The collected blood was left at room temperature for 30 minutes and centrifuged at 3,000 rpm for 20 mins. to separate serum and used for total IgE and Ova-specific IgE analysis. Histopathological examination was performed using lung tissue fixed in formalin. Lung tissues extracted at autopsy were placed in a cassette and submerged in 10% Neutral buffered formalin (10% NBF) at least 20 times the tissue volume. After fixation, the tissue was cut to about 4 mm in thickness and fabricated into paraffin blocks after general tissue treatment and embedding. […]

[9] = tested on: MPTP-injected mice; test: MPTP-induced Parkinson's disease mice (pole test, TH, IL-1b); format: in vivo
Method: For 1-methyl-4-phenyl-1,2,3,6-tetrahydropyridine (MPTP) intoxication, the mice received four intraperitoneal (i.p.) injections of MPTP-HCl (20 mg/kg, free base in saline; Sigma-Aldrich, St. Louis, Mo.) dissolved in PBS at 2 h intervals. Twelve hours after the last MPTP injection, the MPTP-injected mice were received IPS-07004, Montelukast, or IPS-07005 once daily through p.o. administrations.
To examine the effect of IPS-07004 on abnormal behavior of PD mice, Pole test (T-turn and T-LA time) was carried out. PD was induced in mice treated with MPTP (20 mg/kg, I.P) and the mice were administered with IPS-07004 at a dose of 10 mg/kg. And then pole test was performed in the mice. which can measure bradykinesia, a hallmark of Parkinson's disease. The T-turn measures the time the black mouse turns down from the top of the pole. IPS-07004 reduced the T-turn and T-LA time compared with MPTP-treated control group and L-Dopa-treated group, as shown in FIG. 18.

[10] = A549 cells induced by LPS, FIG. 2
[11] = MPTP (20 mg/kg, I.P) mice, 10 mg/kg, compared with MPTP-treated control group and L-Dopa-treated group, FIG. 18

SMILES	viability of A549 cells (MTT) ([1]; cells induced by IL-1beta)	viability of A549 cells (MTT) ([1]; cells induced by LPS)	expression level of IL-6 ([2]; A549 cells induced by IL-1beta)	expression level of IL-6 [2, 10]	expression level of IL-8 ([3]; A549 cells induced by IL-1beta)	expression level of IL-8 [3, 10]	Caspase-1 activity [4]	TSLP expression [5]	TSLP expression [6]	mast cell number [7]	serum IgE level [7]	eosinophil number in BALF ([8]; compared with the OVA-challenged group, FIGS. 13B, 13C)	Pole test T-LA time [9, 11]	Pole test T-turn time [9, 11]	tyrosine hydroxylase (TH) level in striatum and Substantia nigra (immunohistochemistry) ([9]; PD mice brain, compared with MPTP-treated control group and L-Dopa-treated group, FIG. 19)	IL-1b expression in PD brain ([9]; PD mice, FIG. 20)	number of goblet cells (PAS staining of lung sections) ([8]; high dose of Montelukast, versus OVA-challenged group, FIGS. 15A and 15B)
[H]/N=C(\N/C(=N/[H])Nc1ccc(Cl)cc1)NC(C)C [IPS-07004, proguanil]	little or no effect	little or no effect	reduced	reduced	reduced	reduced	inhibitory effect; also recorded: inhibited	inhibitory effect	inhibitory effect	inhibitory effect	inhibitory effect	decreased	reduced	reduced	decreased	reduced	
CC(C)(O)c1ccccc1CC[C@@H](SCC1(CC(=O)O)CC1)c1cccc(/C=C/c2ccc3ccc(Cl)cc3n2)c1 [Montelukast, montelukast]																	significantly lower

From US10966943B2, “Methods and compositions for treatment of asthma or parkinson's disease” (InnoPharmaScreen Inc., priority 2018, dated 2021)
